Assay results taken from patent US20050070554A1, “Substituted heterocyclic compounds and methods of use” (Amgen Inc., priority 2003, published 2005).

Target: T1, LCK (Homo sapiens, UniProt P06239)
T1 construct: LCK KD GST (225-509); GST
Assay: LCK-Homogeneous Time Resolved Fluorescent (HTRF) Kinase Assay
Format: biochemical
Conditions: not given
Description: LCK-Homogeneous Time Resolved Fluorescent (HTRF) Kinase Assay:
The LCK HTRF assay begins with LCK in the presence of ATP phosphorylating the biotinylated peptide Gastrin. The reaction incubates for 90 min. To quench the assay detection reagents are added which both stop the reaction by diluting out the enzyme and chelating the metals due to the presence of EDTA. Once the detection reagents are added the assay incubates for 30 min to allow for equilibration of the detection reagents.
Buffer conditions are as follows: 50 mM HEPES pH 7.5, 50 mM NaCl, 20 mM MgCl, 5 mM MnCl, 2 mM DTT, 0.05% BSA.
The assay is quenched and stopped with 160 μL of detection reagent. Detection reagents are as follows: Buffer made of 50 mM Tris, pH 7.5, 100 mM NaCl, 3 mM EDTA, 0.05% BSA, 0.1% Tween20.
The assay plate is read in either a Discovery or a RubyStar.

T1 sequence (P06239 225-509): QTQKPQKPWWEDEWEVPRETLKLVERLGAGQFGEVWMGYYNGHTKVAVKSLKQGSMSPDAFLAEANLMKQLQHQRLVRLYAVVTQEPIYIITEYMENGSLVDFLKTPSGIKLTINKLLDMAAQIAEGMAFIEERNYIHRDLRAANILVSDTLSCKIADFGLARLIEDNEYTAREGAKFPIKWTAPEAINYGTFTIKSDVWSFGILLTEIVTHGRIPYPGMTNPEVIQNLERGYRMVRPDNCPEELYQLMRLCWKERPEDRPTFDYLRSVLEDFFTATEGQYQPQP

IC50, < 1000 nM:
Cc1cccc(C)c1-n1c(=O)c2cnc(Nc3ccc(OCCCN4CCCCC4)cc3)nc2n2c3ccccc3nc12 [No. 32, 6-(2,6-dimethylphenyl)-2-((4-((3-(1-piperidinyl)-propyl)oxy)phenyl)amino)pyrimido[5′,4′:5,6]-pyrimido[1,2-a]benzimidazol-5(6H)-one]
Cc1cccc(C)c1-n1c(=O)c2cnc(Nc3ccc(OCCN4CCN(C)CC4)c(F)c3)nc2n2c3ccccc3nc12 [No. 38, 6-(2,6-dimethylphenyl)-2-((3-fluoro-4-((2-(4-methyl-1-piperazinyl)ethyl)oxy)phenyl)amino)-pyrimido[5′,4′:5,6]pyrimido[1,2-a]benzimidazol-5(6H)-one]

Same assay, conditions: read-out: activity in the LCK-HTRF Kinase Assay

IC50, < 1000 nM:
COc1cc(Nc2ncc3c(=O)n(-c4c(C)cccc4C)c4nc5ccccc5n4c3n2)cc(OC)c1OCCN1CCN(C)CC1 [No. 22, 2-((3,5-bis(methyloxy)-4-((2-(4-methyl-1-piperazinyl)ethyl)oxy)phenyl)amino)-6-(2,6-dimethylphenyl)pyrimido[5′,4′:5,6]pyrimido[1,2-a]-benzimidazol-5(6H)-one]
Cc1cccc(C)c1-n1c(=O)c2cnc(Nc3ccc(OC[C@H]4CCCN4)cc3)nc2n2c3ccccc3nc12 [No. 23, 6-(2,6-dimethylphenyl)-2-((4-(((2R)-2-pyrrolidinylmethyl)oxy)phenyl)amino)-pyrimido[5′,4′:5,6]pyrimido[1,2-a]benzimidazol-5(6H)-one]
Cc1cccc(C)c1-n1c(=O)c2cnc(Nc3ccc(OCCC4CCN(C)CC4)cc3)nc2n2c3ccccc3nc12 [No. 24, 6-(2,6-dimethylphenyl)-2-((4-((2-(1-methyl-4-piperidinyl)ethyl)oxy)phenyl)amino)-pyrimido[5′,4′:5,6]pyrimido[1,2-a]benzimidazol-5(6H)-one]
COc1cc(Nc2ncc3c(=O)n(-c4c(C)cccc4C)c4nc5ccccc5n4c3n2)cc(OC)c1OCCN1CCCCC1 [No. 25, 2-((3,5-bis(methyloxy)-4-((2-(1-piperidinyl)ethyl)-oxy)phenyl)amino)-6-(2,6-dimethylphenyl)-pyrimido[5′,4′:5,6]pyrimido[1,2-a]benzimidazol-5(6H)-one]
Cc1cccc(C)c1-n1c(=O)c2cnc(Nc3ccc(N4CCN(C)CC4)c(F)c3)nc2n2c3ccccc3nc12 [No. 26, 6-(2,6-dimethylphenyl)-2-((3-fluoro-4-(4-methyl-1-piperazinyl)phenyl)amino)pyrimido[5′,4′:5,6]-pyrimido[1,2-a]benzimidazol-5(6H)-one]
Cc1cccc(C)c1-n1c(=O)c2cnc(Nc3ccc(OCCN4CCCCC4)cc3)nc2n2c3ccccc3nc12 [No. 27, 6-(2,6-dimethylphenyl)-2-((4-((2-(1-piperidinyl)-ethyl)oxy)phenyl)amino)pyrimido[5′,4′:5,6]-pyrimido[1,2-a]benzimidazol-5(6H)-one]
Cc1cccc(C)c1-n1c(=O)c2cnc(Nc3ccc(OC[C@@H]4CCCN4C)cc3)nc2n2c3ccccc3nc12 [No. 28, 6-(2,6-dimethylphenyl)-2-((4-((((2S)-1-methyl-2-pyrrolidinyl)methyl)oxy)phenyl)amino)-pyrimido[5′,4′:5,6]pyrimido[1,2-a]benzimidazol-5(6H)-one]
Cc1cccc(C)c1-n1c(=O)c2cnc(Nc3ccc(OCCN4CCOCC4)cc3)nc2n2c3ccccc3nc12 [No. 29, 6-(2,6-dimethylphenyl)-2-((4-((2-(4-morpholinyl)-ethyl)oxy)phenyl)amino)pyrimido[5′,4′:5,6]-pyrimido[1,2-a]benzimidazol-5(6H)-one]
COc1cc(Nc2ncc3c(=O)n(-c4c(C)cccc4C)c4nc5ccccc5n4c3n2)cc(OC)c1OCCN1CCOCC1 [No. 30, 2-((3,5-bis(methyloxy)-4-((2-(4-morpholinyl)ethyl)-oxy)phenyl)amino)-6-(2,6-dimethylphenyl)-pyrimido[5′,4′:5,6]pyrimido[1,2-a]benzimidazol-5(6H)-one]
Cc1cccc(C)c1-n1c(=O)c2cnc(Nc3ccc(N4CCN(C(C)C)CC4)cc3)nc2n2c3ccccc3nc12 [No. 31, 6-(2,6-dimethylphenyl)-2-((4-(4-(1-methylethyl)-1-piperazinyl)phenyl)amino)pyrimido[5′,4′:5,6]-pyrimido[1,2-a]benzimidazol-5(6H)-one]
CNCCOc1ccc(Nc2ncc3c(=O)n(-c4c(C)cccc4C)c4nc5ccccc5n4c3n2)cc1 [No. 33, 6-(2,6-dimethylphenyl)-2-((4-((2-(methylamino)-ethyl)oxy)phenyl)amino)pyrimido[5′,4′:5,6]-pyrimido[1,2-a]benzimidazol-5(6H)-one]
Cc1cccc(C)c1-n1c(=O)c2cnc(Nc3ccc(OCCN4CCN(C)CC4)cc3)nc2n2c3ccccc3nc12 [No. 34, 6-(2,6-dimethylphenyl)-2-((4-((2-(4-methyl-1-piperazinyl)ethyl)oxy)phenyl)amino)-pyrimido[5′,4′:5,6]pyrimido[1,2-a]benzimidazol-5(6H)-one]
Cc1cccc(C)c1-n1c(=O)c2cnc(Nc3ccc(OCCN4CCCCC4)c(F)c3)nc2n2c3ccccc3nc12 [No. 35, 6-(2,6-dimethylphenyl)-2-((3-fluoro-4-((2-(1-piperidinyl)ethyl)oxy)phenyl)amino)-pyrimido[5′,4′:5,6]pyrimido[1,2-a]benzimidazol-5(6H)-one]
Cc1cccc(C)c1-n1c(=O)c2cnc(Nc3cccc(OCCCN4CCCCC4)c3)nc2n2c3ccccc3nc12 [No. 36, 6-(2,6-dimethylphenyl)-2-((3-((3-(1-piperidinyl)-propyl)oxy)phenyl)amino)pyrimido[5′,4′:5,6]-pyrimido[1,2-a]benzimidazol-5(6H)-one]
COc1cc(Nc2ncc3c(=O)n(-c4c(C)cccc4C)c4nc5ccccc5n4c3n2)ccc1N1CCNCC1 [No. 37, 6-(2,6-dimethylphenyl)-2-((3-(methyloxy)-4-(1-piperazinyl)phenyl)amino)pyrimido[5′,4′:5,6]-pyrimido[1,2-a]benzimidazol-5(6H)-one]
Cc1cccc(C)c1-n1c(=O)c2cnc(Nc3cccc(OCCCN4CCN(C)CC4)c3)nc2n2c3ccccc3nc12 [No. 39, 6-(2,6-dimethylphenyl)-2-((3-((3-(4-methyl-1-piperazinyl)propyl)oxy)phenyl)amino)-pyrimido[5′,4′:5,6]pyrimido[1,2-a]benzimidazol-5(6H)-one]
Cc1cccc(C)c1-n1c(=O)c2cnc(Nc3ccc(N4CCN(C)CC4)c(Cl)c3)nc2n2c3ccccc3nc12 [No. 40, 2-((3-chloro-4-(4-methyl-1-piperazinyl)phenyl)-amino)-6-(2,6-dimethylphenyl)pyrimido[5′,4′:5,6]-pyrimido[1,2-a]benzimidazol-5(6H)-one]
Cc1cccc(C)c1-n1c(=O)c2cnc(Nc3ccc(N4CCN(C(C)C)CC4)c(Cl)c3)nc2n2c3ccccc3nc12 [No. 41, 2-((3-chloro-4-(4-(1-methylethyl)-1-piperazinyl)-phenyl)amino)-6-(2,6-dimethylphenyl)-pyrimido[5′,4′:5,6]pyrimido[1,2-a]benzimidazol-5(6H)-one]
Cc1cccc(C)c1-n1c(=O)c2cnc(Nc3ccc(N4CCN(CC5CCCCC5)CC4)cc3)nc2n2c3ccccc3nc12 [No. 42, 2-((4-(4-(cyclohexylmethyl)-1-piperazinyl)phenyl)-amino)-6-(2,6-dimethylphenyl)pyrimido[5′,4′:5,6]-pyrimido[1,2-a]benzimidazol-5(6H)-one]
COc1cc(Nc2ncc3c(=O)n(-c4c(C)cccc4C)c4nc5ccccc5n4c3n2)ccc1OCCNC(C)C [No. 43, 6-(2,6-dimethylphenyl)-2-((4-((2-((1-methylethyl)-amino)ethyl)oxy)-3-(methyloxy)phenyl)amino)-pyrimido[5′,4′:5,6]pyrimido[1,2-a]benzimidazol-5(6H)-one]
Cc1cccc(C)c1-n1c(=O)c2cnc(Nc3ccc(N4CCN(C(C)C)CC4)c(F)c3)nc2n2c3ccccc3nc12 [No. 44, 6-(2,6-dimethylphenyl)-2-((3-fluoro-4-(4-(1-methylethyl)-1-piperazinyl)phenyl)amino)-pyrimido[5′,4′:5,6]pyrimido[1,2-a]benzimidazol-5(6H)-one]
Cc1cccc(C)c1-n1c(=O)c2cnc(Nc3ccc(N4CCN(CCN(C)C)CC4)cc3)nc2n2c3ccccc3nc12 [No. 45, 2-((4-(4-(2-(dimethylamino)ethyl)-1-piperazinyl)-phenyl)amino)-6-(2,6-dimethylphenyl)-pyrimido[5′,4′:5,6]pyrimido[1,2-a]benzimidazol-5(6H)-one]
COc1cc(Nc2ncc3c(=O)n(-c4c(C)cccc4C)c4nc5ccccc5n4c3n2)ccc1N1CCN(C(C)C)CC1 [No. 46, 6-(2,6-dimethylphenyl)-2-((4-(4-(1-methylethyl)-1-piperazinyl)-3-(methyloxy)phenyl)amino)-pyrimido[5′,4′:5,6]pyrimido[1,2-a]benzimidazol-5(6H)-one]
Cc1cccc(C)c1-n1c(=O)c2cnc(Nc3ccc(OCCNC(C)C)c(Cl)c3)nc2n2c3ccccc3nc12 [No. 47, 2-((3-chloro-4-((2-((1-methylethyl)amino)ethyl)oxy)-phenyl)amino)-6-(2,6-dimethylphenyl)-pyrimido[5′,4′:5,6]pyrimido[1,2-a]benzimidazol-5(6H)-one]
